The target of this assay is human wild type-CFTR (Homo sapiens, UniProt P13569). The experiment in a line: Cell-based YFP assay. The note with it: CHO-K1 cells expressing human wild type-CFTR and YFP-H148Q/I152L; forskolin 20 μM = 100% activity; read-out: Cell-based YFP Assay (EC50) Concentration Range. On the set-up: expressed in transfected cells; host or cells: CHO-K1 (Chinese hamster ovary). Summed up: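 CHO-K1 cells co-expressing human wild-type CFTR and YFP-H148Q/I152L halide sensor, grown 48 h at 37 °C, then in PBS. YFP quenching by I⁻ influx read at 37 °C after adding 140 mM I⁻ solution, sampled every 0.4 s for 14 s. Triplicates averaged; EC50 fitted.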

Molecules are shown by their SMILES.

human wild type-CFTR, sequence (P13569 whole entry): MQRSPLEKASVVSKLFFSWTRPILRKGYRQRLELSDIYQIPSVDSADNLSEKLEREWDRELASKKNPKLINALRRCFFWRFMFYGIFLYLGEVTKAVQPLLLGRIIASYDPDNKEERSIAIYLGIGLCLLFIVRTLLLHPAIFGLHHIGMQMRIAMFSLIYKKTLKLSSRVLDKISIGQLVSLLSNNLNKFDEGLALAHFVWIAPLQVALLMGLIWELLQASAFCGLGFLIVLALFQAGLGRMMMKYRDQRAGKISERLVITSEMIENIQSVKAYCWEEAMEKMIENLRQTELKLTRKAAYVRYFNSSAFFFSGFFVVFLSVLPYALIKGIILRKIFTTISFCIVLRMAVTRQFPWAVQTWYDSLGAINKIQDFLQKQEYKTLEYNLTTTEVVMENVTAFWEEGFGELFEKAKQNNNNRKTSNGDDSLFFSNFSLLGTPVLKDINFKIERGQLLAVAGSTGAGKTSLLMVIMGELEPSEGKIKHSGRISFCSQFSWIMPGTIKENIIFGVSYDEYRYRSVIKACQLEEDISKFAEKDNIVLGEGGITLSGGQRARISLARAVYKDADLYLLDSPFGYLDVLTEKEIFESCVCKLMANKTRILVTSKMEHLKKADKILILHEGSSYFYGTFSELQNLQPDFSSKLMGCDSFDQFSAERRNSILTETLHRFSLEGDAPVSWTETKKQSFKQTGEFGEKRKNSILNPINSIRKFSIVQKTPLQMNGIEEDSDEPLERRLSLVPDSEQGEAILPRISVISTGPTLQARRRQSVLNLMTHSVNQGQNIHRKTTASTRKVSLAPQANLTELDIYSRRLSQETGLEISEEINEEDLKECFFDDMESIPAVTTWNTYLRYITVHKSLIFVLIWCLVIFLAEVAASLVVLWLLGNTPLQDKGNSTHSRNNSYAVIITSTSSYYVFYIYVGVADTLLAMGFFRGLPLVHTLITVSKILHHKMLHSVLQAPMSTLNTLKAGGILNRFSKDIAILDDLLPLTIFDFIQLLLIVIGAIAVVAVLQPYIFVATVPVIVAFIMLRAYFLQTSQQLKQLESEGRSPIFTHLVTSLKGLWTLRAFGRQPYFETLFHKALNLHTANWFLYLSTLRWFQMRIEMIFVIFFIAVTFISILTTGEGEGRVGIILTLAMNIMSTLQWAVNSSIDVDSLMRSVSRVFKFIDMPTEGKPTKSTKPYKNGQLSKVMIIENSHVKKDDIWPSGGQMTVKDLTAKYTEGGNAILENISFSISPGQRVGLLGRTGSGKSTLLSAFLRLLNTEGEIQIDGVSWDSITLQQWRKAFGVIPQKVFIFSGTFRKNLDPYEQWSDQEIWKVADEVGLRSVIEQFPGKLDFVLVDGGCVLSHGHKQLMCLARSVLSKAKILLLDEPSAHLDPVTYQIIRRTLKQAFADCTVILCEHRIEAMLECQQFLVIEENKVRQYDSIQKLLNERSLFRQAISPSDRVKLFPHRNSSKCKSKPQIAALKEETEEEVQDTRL

With `COc1ccc(-c2ccnc3cc(C(=O)Nc4ccc(C(=O)OCCN5CCN(C(=O)OC(C)(C)C)CC5)cc4)nn23)cc1OC` [Compound 275, tert-butyl 4-(2-((4-(7-(3,4-dimethoxyphenyl)pyrazolo [1,5-a]pyrimidine-2-carboxamido)benzoyl)oxy)ethyl)piperazine-1-carboxylate], the EC50 was < 200 nM. Then `COc1ccc(-c2ccnc3cc(C(=O)Nc4ccc(C(=O)O)c(F)c4)nn23)cc1OC` [Compound 278, 4-(7-(3,4-dimethoxyphenyl)pyrazolo[1,5-a]pyrimidine-2-carboxamido)-2-fluorobenzoic acid], with ≥ 2000 nM. For `COc1ccc(-c2ccnc3cc(C(=O)Nc4ccc(C(=O)O)c(Cl)c4)nn23)cc1OC` [Compound 279, 2-chloro-4-(7-(3,4-dimethoxyphenyl)pyrazolo [1,5-a]pyrimidine-2-carboxamido)benzoic acid] the value was ≥ 2000 nM; for `COc1ccc(-c2ccnc3cc(C(=O)Nc4ccc(N5CCNCC5)cn4)nn23)cc1OC` [Compound 286, 7-(3,4-dimethoxyphenyl)-N-(5-(piperazin-1-yl)pyridin-2-yl)pyrazolo [1,5-a]pyrimidine-2-carboxamide], < 200 nM; for `COc1ccc(-c2ccnc3cc(NC(=O)C45CCC(N6CCOCC6)(CC4)CC5)nn23)cc1OC` [Compound 288, N-(7-(3,4-dimethoxyphenyl)pyrazolo[1,5-a]pyrimidin-2-yl)-4-morpholinobicyclo[2.2.2]octane-1-carboxamide], ≥ 2000 nM. Regarding `COc1ccc(-c2ccnc3cc(C(=O)Nc4ccc(OC(C)C)cc4)nn23)cc1OC` [Compound 290, 7-(3,4-dimethoxyphenyl)-N-(4-isopropoxyphenyl)pyrazolo [1,5-a]pyrimidine-2-carboxamide], the EC50 was in the range of 200 to 2000 nM. Then `COc1ccc(-c2ccnc3cc(C(=O)Nc4cc(C(F)(F)F)cc(C(F)(F)F)c4)nn23)cc1OC` [Compound 291, N-(3,5-bis(trifluoromethyl)phenyl)-7-(3,4-dimethoxyphenyl)pyrazolo [1,5-a]pyrimidine-2-carboxamide], with ≥ 2000 nM.

As to `COc1ccc(-c2ccnc3cc(C(=O)Nc4ccc(CO)cc4)nn23)cc1OC` [Compound 292, 7-(3,4-dimethoxyphenyl)-N-(4-(hydroxymethyl)phenyl) pyrazolo[1,5-a]pyrimidine-2-carboxamide], the EC50 was < 200 nM. Then `CCOc1ccc(NC(=O)c2cc3nccc(-c4ccc(F)c(F)c4)n3n2)cc1` [Compound 293], with ≥ 2000 nM. As for `COc1ccc(-c2ccnc3cc(C(=O)Nc4ccc(N5CCOCC5)cn4)nn23)cc1[N+](=O)[O-]` [Compound 294, 7-(4-methoxy-3-nitrophenyl)-N-(5-morpholinopyridin-2-yl) pyrazolo[1,5-a] pyrimidine-2-carboxamide], the EC50 is ≥ 2000 nM. For `CCOc1ccc(NC(=O)c2cc3nccc(-c4ccc(OC)c([N+](=O)[O-])c4)n3n2)cc1` [Compound 295, N-(4-ethoxyphenyl)-7-(4-methoxy-3-nitrophenyl)pyrazolo [1,5-a]pyrimidine-2-carboxamide] the value was ≥ 2000 nM; for `CCOc1ccc(NC(=O)c2cc3nccc(-c4ccc(OC)cc4F)n3n2)cc1` [Compound 296, N-(4-ethoxyphenyl)-7-(2-fluoro-4-methoxyphenyl)pyrazolo [1,5-a]pyrimidine-2-carboxamide], ≥ 2000 nM; for `COc1ccc(-c2ccnc3cc(C(=O)Nc4ccc(N5CCOCC5)cn4)nn23)c(F)c1` [Compound 297, 7-(2-fluoro-4-methoxyphenyl)-N-(5-morpholinopyridin-2-yl) pyrazolo[1,5-a]pyrimidine-2-carboxamide], ≥ 2000 nM. For `CCOc1ccc(NC(=O)c2cc3nccc(-c4ccc(OC(F)(F)F)c(Cl)c4)n3n2)cc1` [Compound 298, 7-(3-chloro-4-(trifluoromethoxy)phenyl)-N-(4-ethoxyphenyl)pyrazolo [1,5-a]pyrimidine-2-carboxamide] the value was ≥ 2000 nM.
